Test results as given in patent US20100168093A1, “SUBSTITUTED 3-AMINO-4 -HYDROXY PYRROLIDINES COMPOUNDS, THEIR PREPARATION AND USE AS MEDICAMENTS” (priority 2006, published 2010).
Where a name gives a salt, the structure may show the parent alone.

Molecular target: T1, Sigma-1 receptor (Cavia porcellus, UniProt Q60492)
T1 construct: guinea pig brains were homogenized; from tissue; host or cells: guinea pig brain membranes
Experiment: Sigma-1 receptor binding assay, [3H](+)-pentazocine displacement in brain membranes
Details: 2.5 h, compound at 10^−7 M; [3H](+)-pentazocine 0.5 nM; guinea pig brain membranes; non-specific binding defined by 1 μM haloperidol; read-out: Percent Replacement Sigma-1 receptor [10^−7 M]
Protocol: Some representative compounds of the invention were tested for their activity as sigma (sigma-1) inhibitors. The following protocol was followed:
Brain membrane preparation and binding assays for the σ1-receptor were performed as described (DeHaven-Hudkins et al., 1992, Eur. J. Pharmacol. 227, 371-378.) with some modifications. In brief, guinea pig brains were homogenized in 10 vols. (w/v) of Tris-HCl 50 mM 0.32 M sucrose, pH 7.4, with a Kinematica Polytron PT 3000 at 15000 r.p.m. for 30 s. The homogenate was centrifuged at 1000g for 10 min at 4° C. and the supematants collected and centrifuged again at 48000 g for 15 min at 4° C. The pellet was resuspended in 10 volumes of Tris-HCl buffer (50 mM, pH 7.4), incubated at 37° C. for 30 min, and centrifuged at 48000 g for 20 min at 4° C. Following this, the pellet was resuspended in fresh Tris-HCl buffer (50 mM, pH 7.4) and stored on ice until use.
Each assay tube contained 10 μL of [^3H](+)-pentazocine (final concentration of 0.5 nM), 900 μL of the tissue suspension to a final assay volume of 1 mL and a final tissue concentration of approximately 30 mg tissue net weight/mL. Non-specific binding was defined by addition of a final concentration of 1 μM haloperidol. All tubes were incubated at 37° C. for 150 min before termination of the reaction by rapid filtration over Schleicher & Schuell GF 3362 glass fibre filters [previously soaked in a solution of 0.5% polyethylenimine for at least 1 h]. Filters were then washed with four times with 4 mL of cold Tris-HCl buffer (50 mM, pH 7.4). Following addition of scintillation cocktail, the samples were allowed to equilibrate overnight. The amount of bound radioactivity was determined by liquid scintillation spectrometry using a Wallac Winspectral 1414 liquid scintillation counter. Protein concentrations were determined by the method of Lowry et al. (1951; J. Biol. Chem, 193, 265.).

T1 sequence (Q60492 whole entry): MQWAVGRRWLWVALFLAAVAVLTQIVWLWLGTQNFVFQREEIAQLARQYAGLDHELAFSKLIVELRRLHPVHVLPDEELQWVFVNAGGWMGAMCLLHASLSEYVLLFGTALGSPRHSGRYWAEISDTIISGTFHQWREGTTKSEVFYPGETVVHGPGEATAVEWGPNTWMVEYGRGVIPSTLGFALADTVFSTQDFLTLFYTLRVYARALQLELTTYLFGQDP

Question: With O[C@@H]1CN(Cc2ccccc2)C[C@H]1Nc1ccccc1 [Example 29, (3,4-trans)-1-benzyl-4-(phenylamino)pyrrolidin-3-ol] as the compound, how does the inhibition at 0.1 µM read?
Answer: 39.3%

Question: With O[C@@H]1CN(Cc2ccccc2)C[C@H]1N1CCc2cccc3c2C1CC3 (stereo partly drawn) [Example 11, (3,4-trans)-1-benzyl-4-(2,3,8,8a-tetrahydrocyclopenta[ij]isoquinolin-1(7H)-yl)pyrrolidine-3-ol] as the compound, how does the inhibition at 0.1 µM read?
Answer: 81.1%

Question: For CC(=O)O[C@@H]1CN(Cc2ccccc2)C[C@H]1N1CCN(S(=O)(=O)c2ccccc2F)CC1 [Example 75, (3,4-trans)-1-benzyl-4-(4-(2-fluorophenylsulfonyl)piperazin-1-yl)pyrrolidin-3-yl acetate dihydrochloride], which inhibition at 0.1 µM is on record?
Answer: 95.5%

Question: With CC(=O)O[C@@H]1CN(Cc2ccccc2)C[C@H]1N1CCN(S(=O)(=O)c2ccc(C)cc2)CC1 [Example 56, (3,4-trans)-1-benzyl-4-(4-tosylpiperazin-1-yl)pyrrolidin-3-yl acetate dihydrochloride] as the compound, how does the inhibition at 0.1 µM read?
Answer: 38%

Question: With CC(=O)O[C@@H]1CN(Cc2ccccc2)C[C@H]1N1CCN(S(=O)(=O)c2ccccc2Cl)CC1 [Example 52, (3R,4R)-1-benzyl-4(4-(2-chlorophenylsulfonyl)piperazin-1-yl)pyrrolidin-3-yl acetate] as the compound, how does the inhibition at 0.1 µM read?
Answer: 92.4%

Question: With O[C@@H]1CN(Cc2ccccc2)C[C@H]1N1CCc2ccccc2C1 [Example 1, (3,4-trans)-1-benzyl-4-(3,4-dihydroisoquinolin-2(1H)-yl)pyrrolidine-3-ol] as the compound, how does the inhibition at 0.1 µM read?
Answer: 84.9%

Question: For O=S(=O)(c1ccccc1Br)N1CCN([C@@H]2CN(Cc3ccccc3)C[C@H]2O)CC1 [Example 67, (3,4-trans)-1-benzyl-4-(4-(2-bromophenylsulfonyl)piperazin-1-yl)pyrrolidin-3-ol dihydrochloride], which inhibition at 0.1 µM is on record?
Answer: 86.7%

Question: With C[C@@H](c1ccccc1)N1C[C@@H](O)[C@H](N2CCc3ccccc3C2)C1 [Example 16, (3,4-trans)-4-(3,4-dihydroisoquinolin-2(1H)-yl)-1((S)-1-phenylethyl)pyrrolidine-3-ol] as the compound, how does the inhibition at 0.1 µM read?
Answer: 49.9%

Question: For CC(=O)O[C@@H]1CN(Cc2ccccc2)C[C@H]1N1CCN(C(=O)OC(C)(C)C)CC1 [Example 24], which inhibition at 0.1 µM is on record?
Answer: 73%

Question: Which inhibition at 0.1 µM does the source give for Cc1ccc(S(=O)(=O)N2CCN([C@@H]3CN(Cc4ccccc4)C[C@H]3O)CC2)cc1 [Example 57, (3,4-trans)-1-benzyl-4-(4-tosylpiperazin-1-yl)pyrrolidin-3-ol dihydrochloride] here?
Answer: 16.8%

Question: For O[C@@H]1CN(Cc2ccccc2)C[C@H]1N1CCN(c2ccc(Cl)c(Cl)c2)CC1 [Example 88, (3,4-trans)-1-benzyl-4-(4-(3,4-dichlorophenyl)piperazin-1-yl)pyrrolidin-3-ol], which inhibition at 0.1 µM is on record?
Answer: 93.1%

Question: For O=S(=O)(c1ccccc1F)N1CCN([C@H]2CN(Cc3ccccc3)C[C@@H]2O)CC1 [Example 77, (3S,4S)-1-benzyl-4-(4-(2-fluorophenylsulfonyl)piperazin-1-yl)pyrrolidin-3-ol dihydrochloride], which inhibition at 0.1 µM is on record?
Answer: 46.1%

Question: For O[C@@H]1CN(Cc2ccccc2)C[C@H]1N1CCN(c2ccccc2Cl)CC1 [Example 85], which inhibition at 0.1 µM is on record?
Answer: 107%

Question: Which inhibition at 0.1 µM does the source give for CC(=O)O[C@@H]1CN(Cc2ccccc2)C[C@H]1N1CCN(S(=O)(=O)c2ccccc2-c2ccccc2)CC1 (relative stereo) [Example 27, trans 1-Benzyl-4-(4-(2-phenyl-phenylsulfonyl)piperazin-1-yl)pyrrolidin-3-yl acetate] here?
Answer: 24.7%

Question: For O[C@H]1CN(Cc2ccccc2)C[C@@H]1N1CCN(c2ccccc2Cl)CC1 [Example 86, (3S,4S)-1-benzyl-4-(4-(2-chlorophenyl)piperazin-1-yl)pyrrolidin-3-ol], which inhibition at 0.1 µM is on record?
Answer: 86.2%

Question: For O[C@@H]1CN(Cc2ccccc2)C[C@H]1N1CCN(Cc2c(F)cccc2Cl)CC1 [Example 78, (3,4-trans)-1-benzyl-4-(4-(2-chloro-6-fluorobenzyl)piperazin-1-yl)pyrrolidine-3-ol], which inhibition at 0.1 µM is on record?
Answer: 81.9%

Question: Which inhibition at 0.1 µM does the source give for COc1ccc(CN[C@@H]2CN(Cc3ccccc3)C[C@H]2O)cc1 [Example 32, (3,4-trans)-1-benzyl-4-(4-methoxybenzylamino)pyrrolidin-3-ol] here?
Answer: 59.1%

Question: Which inhibition at 0.1 µM does the source give for O[C@@H]1CN(Cc2ccccc2)C[C@H]1N1CCN(Cc2ccc(Cl)c(Cl)c2)CC1 [Example 79, (3,4-trans)-1-benzyl-4-(4-(3,4-dichlorobenzyl)piperazin-1-yl)pyrrolidine-3-ol] here?
Answer: 88.4%

Question: For CC(=O)O[C@@H]1CN(Cc2ccccc2)C[C@H]1N1CCN(S(=O)(=O)c2cccc3ccccc23)CC1 [Example 60, (3,4-trans)-1-benzyl-4-(4-(naphthalen-1-ylsulfonyl)piperazin-1-yl)pyrrolidin-3-yl acetate dihydrochloride], which inhibition at 0.1 µM is on record?
Answer: 40.8%

Question: For COC(=O)c1ccc(N[C@@H]2CN(Cc3ccccc3)C[C@H]2O)cc1 [Example 38, Methyl 4-((3,4-trans)-1-benzyl-4-hydroxypyrrolidin-3-ylamino)benzoate], which inhibition at 0.1 µM is on record?
Answer: 55.9%

Question: Which inhibition at 0.1 µM does the source give for O=S(=O)(c1ccccc1)N1CCN([C@@H]2CN(Cc3ccccc3)C[C@H]2O)CC1 [Example 73, (3,4-trans)-1-benzyl-4-(4-(phenylsulfonyl)piperazin-1-yl)pyrrolidin-3-ol] here?
Answer: 84%

Question: Which inhibition at 0.1 µM does the source give for COc1ccnc(N2CCN([C@@H]3CN(Cc4ccccc4)C[C@H]3O)CC2)n1 [Example 10, (3,4-trans)-1-benzyl-4-(4-(4-methoxypyrimidin-2-yl)piperazin-1-yl)pyrrolidine-3-ol] here?
Answer: 77.8%

Question: For O[C@@H]1CN(Cc2ccccc2)C[C@H]1NCCCN1CCc2ccccc2C1 [Example 9, (3,4-trans)-1-benzyl-4-(3-(3,4-dihydroisoquinolin-2(1H)-yl)propylamino)pyrrolidine-3-ol], which inhibition at 0.1 µM is on record?
Answer: 38.6%

Question: With O=S(=O)(c1ccccc1F)N1CCN([C@@H]2CN(Cc3ccccc3)C[C@H]2O)CC1 [Example 76, (3,4-trans)-1-benzyl-4-(4-(2-fluorophenylsulfonyl)piperazin-1-yl)pyrrolidin-3-ol dihydrochloride] as the compound, how does the inhibition at 0.1 µM read?
Answer: 85%

Question: For O[C@@H]1CN(Cc2ccccc2)C[C@H]1N1CCC(CN2CCc3ccccc3C2)CC1 [Example 5, (3,4-trans)-1-benzyl-4-(4-((3,4-dihydrolsoquinolin-2(1H)-yl)methyl)piperidin-1-yl)pyrrolidine-3-ol], which inhibition at 0.1 µM is on record?
Answer: 63.5%

Question: With CCCCCCCCN[C@@H]1CN(Cc2ccccc2)C[C@H]1O [Example 31, (3R,4R)-1-benzyl-4-(octylamino)pyrrolidin-3-ol] as the compound, how does the inhibition at 0.1 µM read?
Answer: 89.9%

Question: Which inhibition at 0.1 µM does the source give for O[C@@H]1CN(Cc2ccccc2)C[C@H]1N1CCN(c2ccc(F)cc2)CC1 [Example 83, (3,4-trans)-1-benzyl-4-(4-(4-fluorophenyl)piperazin-1-yl)pyrrolidin-3-ol] here?
Answer: 69.7%

Question: With O=S(=O)(c1cccc2ccccc12)N1CCN([C@@H]2CN(Cc3ccccc3)C[C@H]2O)CC1 [Example 61, (3,4-trans)-1-benzyl-4-(4-(naphthalen-1-ylsulfonyl)piperazin-1-yl)pyrrolidin-3-ol dihydrochloride] as the compound, how does the inhibition at 0.1 µM read?
Answer: 30.1%

Question: For Cc1ccc(F)cc1S(=O)(=O)N1CCN([C@@H]2CN(Cc3ccccc3)C[C@H]2O)CC1 [Example 70, (3,4-trans)-1-benzyl-4-(4-(5-fluoro-2-methylphenylsulfonyl)piperazin-1-yl)pyrrolidin-3-ol dihydrochioride], which inhibition at 0.1 µM is on record?
Answer: 81.4%

Question: With COc1ccc(N[C@@H]2CN(Cc3ccccc3)C[C@H]2O)cc1 [Example 37, (3R,4R)-1-benzyl-4-(4-methoxyphenylamino)pyrrolidin-3-ol] as the compound, how does the inhibition at 0.1 µM read?
Answer: 65.4%

Question: Which inhibition at 0.1 µM does the source give for CC(C)(C)OC(=O)N1CCN([C@@H]2CN(Cc3ccccc3)C[C@H]2O)CC1 [Example 12, tert-butyl-4-((3,4-trans)-1-benzyl-4-hydroxypyrrolidine-3-yl)piperazine-1-carboxylate] here?
Answer: 96.5%

Same assay, conditions: compound at 10^−7 M; [3H](+)-pentazocine 0.5 nM; guinea pig brain membranes; non-specific binding defined by 1 μM haloperidol

Question: With O[C@@H]1CN(Cc2ccccc2)C[C@H]1N1CCN(c2ccccc2Cl)CC1 [Example 84, (3,4-trans)-1-benzyl-4-(4-(2-chlorophenyl)piperazin-1-yl)pyrrolidin-3-ol] as the compound, how does the “Percent Replacement Sigma-1 receptor [10^−7 M]” value read?
Answer: 94.6%

Question: For O=S(=O)(c1ccccc1F)N1CCN([C@@H]2CN(Cc3ccccc3)C[C@H]2O)CC1 [Example 48, (3R,4R)-1-benzyl-4-(4-(2-fluorophenylsulfonyl)piperazin-1-yl)pyrrolidin-3-ol], which “Percent Replacement Sigma-1 receptor [10^−7 M]” value is on record?
Answer: 96.5%

Tested on: not given
Experiment: not given
Details: not given

Question: With O=C(c1ccccc1)N1CCN([C@@H]2CN(Cc3ccccc3)C[C@H]2O)CC1 [Example 20, (4-((3,4-trans)-1-benzyl-4-hydroxypyrrolidine-3-yl)piperazin-1-yl)(phenyl)methanone] as the compound, how does the melting point read?
Answer: 130 to 134 °C
